# Measured values taken from paper PMC6097184 (Clinical cancer research : an official journal of the …, 2017).
# How the values were obtained:
# [1] = molecular target: Wee1 tyrosine kinase; conditions: ref https://ncats.nih.gov/files/AZD1775.pdf; cited from earlier work
# [2] = format: in vivo; conditions: human, po, 400 mg, range, 20 patients with glioblastoma, single oral dose 100, 200 or 400 mg
# [3] = tested on: DNA damage and G2-checkpoint escape; conditions: ref https://ncats.nih.gov/files/AZD1775.pdf; cited from earlier work
# [4] = physicochemical parameters from literature; conditions: high permeability and low solubility
# [5] = fraction unbound in plasma; format: in vitro ADME; conditions: human, patient plasma, fu,p, mean ± SD, plasma of 20 patients with glioblastoma
# [6] = molecular target: T1, human OAT3 (Homo sapiens, UniProt Q8TCC7); test: cellular uptake in HEK293 cells overexpressing OAT3
# T1 sequence (Q8TCC7 1-542): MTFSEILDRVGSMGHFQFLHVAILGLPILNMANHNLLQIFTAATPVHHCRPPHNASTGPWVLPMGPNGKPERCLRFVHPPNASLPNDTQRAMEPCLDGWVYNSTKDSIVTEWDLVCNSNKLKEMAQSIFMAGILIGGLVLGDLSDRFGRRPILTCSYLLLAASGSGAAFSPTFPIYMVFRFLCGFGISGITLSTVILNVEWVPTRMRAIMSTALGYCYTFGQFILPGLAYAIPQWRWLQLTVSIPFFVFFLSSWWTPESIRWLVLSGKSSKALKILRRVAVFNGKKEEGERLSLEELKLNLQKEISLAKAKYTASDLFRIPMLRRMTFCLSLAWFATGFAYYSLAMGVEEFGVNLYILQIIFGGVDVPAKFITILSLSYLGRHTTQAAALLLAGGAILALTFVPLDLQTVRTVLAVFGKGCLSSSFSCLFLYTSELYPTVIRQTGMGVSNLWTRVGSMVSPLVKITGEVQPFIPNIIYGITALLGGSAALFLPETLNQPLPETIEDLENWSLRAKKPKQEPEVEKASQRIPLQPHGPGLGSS
# [7] = molecular target: T2, human OATP2B1 (Homo sapiens, UniProt O94956); test: cellular uptake in HEK293 cells overexpressing OATP2B1; conditions: 10 μmol/L fluvastatin A
# T2 sequence (O94956 1-709): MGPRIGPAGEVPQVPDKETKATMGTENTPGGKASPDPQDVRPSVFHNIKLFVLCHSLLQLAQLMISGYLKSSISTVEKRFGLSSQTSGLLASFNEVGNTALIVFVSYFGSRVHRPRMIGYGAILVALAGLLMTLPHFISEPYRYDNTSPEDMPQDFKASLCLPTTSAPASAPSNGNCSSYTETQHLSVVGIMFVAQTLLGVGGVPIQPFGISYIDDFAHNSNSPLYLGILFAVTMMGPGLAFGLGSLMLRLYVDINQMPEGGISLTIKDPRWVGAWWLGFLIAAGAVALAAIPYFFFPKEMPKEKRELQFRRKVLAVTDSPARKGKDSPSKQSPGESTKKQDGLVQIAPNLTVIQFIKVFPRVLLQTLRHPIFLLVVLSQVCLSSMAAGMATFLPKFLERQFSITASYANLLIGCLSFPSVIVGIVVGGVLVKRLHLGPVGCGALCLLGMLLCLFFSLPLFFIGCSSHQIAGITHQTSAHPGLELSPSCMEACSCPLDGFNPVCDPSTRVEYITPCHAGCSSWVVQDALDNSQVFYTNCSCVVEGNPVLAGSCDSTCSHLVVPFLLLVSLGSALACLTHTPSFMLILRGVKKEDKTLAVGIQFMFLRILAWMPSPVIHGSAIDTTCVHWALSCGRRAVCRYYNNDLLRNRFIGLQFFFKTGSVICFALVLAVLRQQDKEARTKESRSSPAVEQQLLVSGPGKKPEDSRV
smiles,measurement,setting,value
C=CCn1c(=O)c2cnc(Nc3ccc(N4CCN(C)CC4)cc3)nc2n1-c1cccc(C(C)(C)O)n1 [AZD1775],enzyme IC50 for inhibiting Wee1 activity,[1],2.6 ng/mL
same,Kp,"[2]; tumor / plasma (total), total tumor-to-plasma concentration ratio (Kp)",3.8 to 40.4
same,Kp uu,"[2]; tumor / plasma (unbound), unbound tumor-to-plasma concentration ratio (Kp,uu)",1.3 to 24.4
same,IC50 for inducing DNA damage and G2-checkpoint escape in cell-based assays,[3],~40 ng/mL
same,Biopharmaceutics Classification System (BCS) class,[4],class II
same,fraction unbound,[5],0.182 ± 0.024
C[C@]12CC[C@@H]3c4ccc(OS(=O)(=O)O)cc4CC[C@H]3[C@@H]1CCC2=O [estrone-3-sulfate],cellular uptake in OAT3 cells in presence of inhibitor,[6]; 50 μmol/L probenecid,reduced estrone-3-sulfate uptake to a level similar to that in the vector control
same,cellular uptake in HEK293 cells overexpressing OAT3 compared with vector control,[6]; no inhibitor,significantly higher
same,cellular uptake in OATP2B1 cells in presence of inhibitor,[7],reduced estrone-3-sulfate uptake to a level similar to that in the vector control
